Measured values as given in a melting point compilation (Tetko et al.; mined from patent text by program, amines drawn as free bases though some values may be those of a salt).

SMILES	melting point
Cc1ccccc1[C@H](O)CCc1c(C(=O)N(C)C)cc2c(nc(C)n2C)c1O	200 to 202 °C
COc1ccc2[nH]c(C(=O)c3ccc(Cl)cc3)c(CC(=O)O)c2c1	200 to 204 °C
O=[N+]([O-])c1cc(-c2cccc3ccccc23)c2nc(Cl)ccc2c1	224 to 225 °C
CCNc1cc(-c2nc(=O)c3ccccc3s2)ccc1C(=O)OC	171 to 178 °C
O=C1CCc2ccc(O)c(c2)Oc2ccc(cc2)C=CCO1	148 to 151 °C
O=C(NC1CC1)c1ccc(N2CCN(Cc3cnc4c(c3)NC(=O)[C@@H]3CCCN43)CC2)cc1	265 to 268 °C
CC(Oc1ccc(COc2ccc(Cl)cc2)cc1)C(=O)O (centres undefined)	156 to 158 °C
Cc1cc(N2CCc3ncccc3C2)nc(N2CCCC2)c1NC(=O)Cc1cc(F)cc(F)c1	203 to 206 °C
COc1ccccc1Cn1c(=O)c2c(N3CCN(C)CC3)cc(Cl)cc2n(Cc2ccccc2)c1=O	91 to 96 °C
O=C(c1cc2ccc(N3CCOCC3)cc2o1)C12CC3CC(CC(C3)C1)C2	123 to 125 °C
CC(C(=O)N(C)C)n1cc(Cl)c(-c2ccccc2)n1 (centres undefined)	73.5 to 75 °C
CCCC1COC(Cn2cncn2)(c2ccc(Oc3ccccc3)cc2)O1 (centres undefined)	68.5 to 71 °C
O=Cc1ccccc1Oc1ccc(Cl)cc1[N+](=O)[O-]	100 to 101 °C
CCOC(=O)c1ccc(-c2cc(-c3ccc4c(c3)C(C)(C)CCC4(C)C)ccc2OS(=O)(=O)C(F)(F)F)cc1	110 to 113 °C
CCOC(=O)c1ncc2[nH]c3c(C(C)(C)C)cc(C(C)(C)C)cc3c2c1C	260 to 263 °C
CCCn1c(=O)c2[nH]c(/C=C/c3ccc(OCC)cc3)nc2n(CCC)c1=O	262 °C
O=C(Cl)c1ccc(S(=O)(=O)NC(=O)c2ccccc2Cl)cc1	198 to 200 °C
CC(=CN1C(=O)c2ccccc2C1=O)c1ccco1	136 to 137 °C
CSc1nccc(-c2cc(C)ccc2NC(=O)C(C)(C)C)n1	119 to 120 °C
Fc1ccc(C(c2ccccc2)(c2ccccc2)n2ccnc2)cc1	146 °C
CC[C@H]1CN(c2c(F)cc3c(=O)c(C(=O)O)cn(C4CC4)c3c2C)C[C@H]1N	148 to 150 °C
CN1CCc2c([nH]c(Br)c2Br)C(c2ccccc2)C1 (centres undefined)	136 to 137 °C
CC(C)Oc1ccc(-c2noc(-c3ccc(CN4CC(C(=O)O)C4)cc3)n2)cc1Cl	195 to 196 °C
CCOC(=O)C1=C(COCC(N)=S)NC(C)=C(C(=O)OC)C1c1ccccc1Cl (centres undefined)	149 to 150 °C
COc1cc(N(C(=O)C[C@H](N)C(=O)O)S(=O)(=O)c2ccc3c(ccn3C)c2)cc(OC)c1OC	156 to 159 °C

SMILES	melting point
CCCOc1ccc(CO)nc1OCc1ccccc1	50 to 51 °C
CC(=O)OC1CC2=CC(=O)C3C4CCC(C(C)CCCC(C)C)C4(C)CCC3C2(C)C(OC(C)=O)C1 (centres undefined)	121 to 122 °C
COc1ccc(C(=O)N2CCc3cc(OCc4ccccc4)c(OC)cc3C2)cc1	126 to 127 °C
CCOCc1cc(N)ccc1N1C(=O)c2ccc(Cl)cc2C1=O	154 to 156 °C
O=C(Nc1ccccc1)N1Cc2sccc2C(O)C1 (centres undefined)	200 °C
CCCOC(=O)c1ccc(CCCCOCCCCCNCC(O)c2ccc(O)c(NS(C)(=O)=O)c2)cc1 (centres undefined)	74 to 76 °C
Oc1c2c(c(O)c3ccccc13)CCCC2	210 to 212 °C
Clc1ccc2c(c1)N=C(N1CCN[C@@H](Cc3ccccc3)C1)c1ccccc1N2	79 to 92 °C
CS(=O)(=O)Nc1ccccc1OC/C=C/CN1CCC(OC(c2ccccc2)c2cccs2)CC1 (centres undefined)	114 to 117 °C
CCOC(=O)c1cc(-c2csc(N)n2)[nH]n1	205 to 207 °C
CC(=O)Nc1ccc(O[C@H](c2ccc([N+](=O)[O-])cc2)[C@@H](O)CO)cc1	110 to 111 °C
NC(=O)C1CCc2cc(C3CCCCCC3)c(Cl)cc21 (centres undefined)	170 to 171 °C
COc1cc2c(cc1OC)CCC(C(=O)NO)=C2	179 to 180 °C
O=C1c2ccccc2C(=O)N1CCN1CCC(=C2c3ccccc3C=Cc3ccccc32)CC1	190 °C
CCN1CCCC1CNC(=O)c1cc(S(N)(=O)=O)c(OC)c2c1OCCO2 (centres undefined)	110 to 115 °C
COc1ccc(-c2[nH]nc3c2C(=O)c2c(NC=O)cccc2-3)cc1	280 °C
N#CCOc1ccc(CCNC(=O)OCc2ccccc2)cc1	110 to 115 °C
O=C1NC(=O)C(S(=O)(=O)c2ccc3ccccc3c2)S1 (centres undefined)	196 to 197 °C
COC(=O)C1=C(C)NC(N)=C(C(=O)OC(C)C)C1c1cccc([N+](=O)[O-])c1 (centres undefined)	167 °C
COC(=O)[C@@H](NS(=O)(=O)c1ccc(Br)cc1)C(C)C	88 to 90 °C
C[C@@]1(F)[C@H](OC(=O)c2ccccc2)[C@@H](COC(=O)c2ccccc2)O[C@@H]1Br	59 to 61 °C
CC(C)c1ccc(N(Cc2cnn(CC(F)(F)F)c2)C(=O)C2CCCc3c(O)cccc32)cn1 (centres undefined)	128 °C
OCCc1coc(-c2ccc3ccccc3c2)n1	96 to 98 °C
Cn1cc(C(=O)Nc2ccccc2OC(F)(F)C(F)Cl)c(C(F)(F)F)n1 (centres undefined)	94 to 95 °C
CCC(O)(c1ccc(O)cc1)c1ccc(C(F)(F)F)cc1 (centres undefined)	126 to 127 °C

SMILES	melting point
O=C(c1ccc(Cl)cc1)c1ccc([N+](=O)[O-])cc1Cl	117 to 118 °C
O=C(O)c1cc(Oc2cc(Cl)c(Cl)cc2Cl)ccc1[N+](=O)[O-]	157 to 161 °C
O=C(Nc1cccc2c(NN3CCOC3=O)ccnc12)c1c(Cl)cccc1Cl	> 250 °C
CC(Oc1ccc(Oc2cnc3cc(Cl)ccc3n2)cc1)C(=O)Nc1ccc(OC(F)(F)CF)cc1 (centres undefined)	137 to 140 °C
COc1cc(OC)nc(O[C@H]2CCCC[C@H]2C(=O)O)n1 (relative stereo)	151 to 152 °C
CS(=O)(=O)OCc1cc(-c2ccc3occc3c2)nn(Cc2ccc(F)cc2)c1=O	162 to 165 °C
N#Cc1cc(F)cc2c1OCCC21SC(=O)NC1=O (centres undefined)	230 to 232 °C
CCCNc1nc(C#N)c(C#N)nc1-c1ccc(C)cc1	115 to 116 °C
O=C1N(Cc2ncccc2C(F)(F)F)c2ccccc2C12COc1c(Cl)cc3c(c12)OCCO3 (centres undefined)	273 to 275 °C
O=C(CCc1c[nH]c2ccccc12)NCc1ccccc1	73 to 75 °C
O=C(Cc1cccs1)c1c(O)sc2ccccc12	99 to 101 °C
C[C@H](c1ccccc1)n1c(=O)[nH]c2ncc(-c3ccc(-c4nc[nH]n4)cc3)nc21	258 to 260 °C
CN(CCCNC(=O)c1c(Cl)ccc2nc3ccccc3nc12)CCCNC(=O)c1c(Cl)ccc2nc3ccccc3nc12	206 to 207 °C
CC1(C)CC(=O)C2=C(C1)NC1=C(C(=O)CC(C)(C)C1)C2c1ccc(Cl)c(Oc2ccncc2)c1	242 to 244 °C
Nc1c([N+](=O)[O-])cnn1-c1c(Cl)cc(C(F)(F)F)cc1Cl	190 °C
N#Cc1ccc(-c2n[nH]cc2C(F)(F)F)cc1SCC(F)(F)F	90 to 91 °C
C[C@@H]1CCCN1CCc1ccc2cc(Br)ccc2n1	49 to 50 °C
Oc1ccc2c(c1)CCC(CNCC(O)c1ccc(Cl)cc1)C2 (centres undefined)	150 to 153 °C
CSc1nccc(-c2c(-c3ccc(F)cc3)nc3occn23)n1	144 to 145 °C
CCCc1c(N)c(C(N)=O)nn1C	170 to 174 °C
Cc1nnc(-c2ccc3ncn(C4CCN(C(=O)c5ccccc5)CC4)c3c2)o1	158 to 159 °C
CNC1CN(c2c(F)cc3c(=O)c(C(=O)O)cn(C4CC4)c3c2F)C1	270 to 272 °C
FC(F)(F)c1cc(-c2ccc(Cl)c(Cl)c2)nc2c(-c3ccncc3)cnn12	260 °C
CN(c1ccc(Cl)cc1)c1ncccc1[N+](=O)[O-]	107 to 110 °C
CC(C)(C)CC(=O)Nc1cc(-c2ccnc3c(C(=O)c4cccs4)cnn23)ccc1F	180 to 181 °C

SMILES	melting point
CSc1ccc(-c2sc(NC(C)=O)nc2/C=C/c2ccc([N+](=O)[O-])cc2)cc1	228 to 230 °C
CN1CCC[C@@H]1Cc1c[nH]c2ccc(C=CC(C)(C)O)cc12	155 to 158 °C
O=C(SCSc1c[nH]nn1)c1ccccc1	72.5 to 73.5 °C
Nc1nc(Nc2ccccc2)sc1C(=O)c1c(Cl)cccc1Cl	245 to 246 °C
Clc1ccc2c(NCCCN3CCCCC3)ccnc2c1	113 to 116 °C
COC(=O)c1ccc(F)c2c1CC(N(CCCCc1c[nH]c3ccc(F)cc13)C1CCC1)CO2 (centres undefined)	115 °C
COc1ccc(F)c(C=C2c3ccccc3CCc3ccccc32)c1	111 °C
CS(=O)(=O)C(=C1CN(C(c2ccccc2)c2ccccc2)C1)c1cccc2cccnc12	212 °C
COc1cc(Cl)c(N=C=S)cc1C(=O)Nc1c(C)cccc1C	191 to 192 °C
CNC(=O)n1cnc(C)c1Br	98.4 to 100 °C
CCCCCCCCCCC1(CCCCCCCCCC)c2cc(Br)ccc2-c2ccc(C=O)cc21	45 to 47 °C
CCN1C(=O)CCC2(CCC(=O)c3ccccc32)C1=O (centres undefined)	85.5 to 89 °C
Cc1ccccc1C=C1CCn2c1nc1ccc(C(=O)O)cc1c2=O	285 to 287 °C
CN(C(=O)CCCOc1ccc2c(c1)CN1CC(=O)NC1=N2)C1CCCCC1	243 to 244 °C
CCCc1c(OCCCOc2ccc(C(=O)OCCCN(C)C)cc2Br)ccc(C(C)=O)c1O	71 to 72 °C
C=CCOc1ccc2c(c1)c(-c1cc3cccnc3n1S(=O)(=O)c1ccc(C)cc1)cn2C	257 to 259 °C
O=C(c1ccco1)c1cc([N+](=O)[O-])ccc1Cl	93 to 96 °C
Cc1ccc2ncc(CSc3ccc([N+](=O)[O-])cc3)n2c1	127 to 128 °C
C=C(C(=O)c1ccccc1)c1cccnc1	113 to 114 °C
COc1cc2ncnc(N3CCCN(C(=O)Nc4ccc([N+](=O)[O-])cc4)CC3)c2cc1OC	243 to 244 °C
COC(=O)Nc1cc(O)c(Cl)cc1F	140 to 141 °C
CC1(C)OC(=O)N(Cc2ccccc2[N+](=O)[O-])C1=O	134 °C
Nc1cc(O)nn1-c1c(Cl)cc(Cl)cc1Cl	221 to 223 °C
Cc1ccc2c(c1)[nH]c(=O)n2CCCl	120 °C
